Here are results for 27 compounds from patent publication US7105513B2, “Acylated, heteroaryl-condensed cycloalkenylamines and their use as pharmaceuticals” (Sanofi-Avertis Deutschland GmbH, priority 2002, dated 2006).

Structures are written as SMILES. Where a name gives a salt, the structure may show the parent alone.

For this assay, the system named is eNOS promoter. Nature of the assay: Activation of eNOS transcription (eNOS promoter-luciferase reporter gene assay). Particulars: Homo sapiens, Endothelial cell, 18 h, human endothelial cell line stably transfected with eNOS promoter-firefly luciferase construct; 18 h incubation; EC50 determined graphically; read-out: EC50 of transcription induction ratio (TIR). The format is cell-based. Here is the method:
Determination of Activation of eNOS Transcription
Activation of eNOS transcription was determined as described in detail in Li et al., “Activation of protein kinase C alpha and/or epsilon enhances transcription of the human endothelial nitric oxide synthase gene”, Mol. Pharmacol. 53 (1998) 630, the content of which is incorporated herein by reference.
Briefly, a 3.5 kB long fragment 5′ of the starting codon of the eNOS gene was cloned, sequenced and cloned in firefly luciferase expression plasmids to monitor activation of the eNOS promoter by reporter gene activity. A human endothelial cell line stable transfected and expressing this promoter-reporter construct was used for compound testing. Cells were incubated for 18 h with compounds.
All compounds were dissolved in sterile dimethyl sulfoxide (DMSO). A final concentration of 0.5% DMSO in complete medium was allowed. Induction of reporter gene expression in these cells was measured using a standard luciferase assay system (Promega, Cat. No E150) according to the manufacturer's instructions. Luciferase induction in cells incubated with compounds were compared to those incubated with solvent alone. The ratio of both activities (transcription induction ratio, TIR) was plotted as a function of compound concentration,. Typically, TIR values started at low concentrations at a ratio of 1, indicating no compound effect, and extended up to a maximum TIR value TIR(max) which indicates the increase of the eNOS transcription. EC50 values of transcription induction ratios as a function of compound concentration were determined graphically.

For the compound `Cc1ccc(C(=O)NC2Cc3ccsc3C2)c(C)n1` (stereo not drawn) [Example 13, N-(5,6-Dihydro-4H-cyclopenta[b]thiophen-5-yl)-2,6-dimethylnicotinamide, trifluoroacetic acid salt], the EC50 was 0.62 µM.
In the case of `COCc1ccc(C(=O)NC2Cc3ccsc3C2)cn1` (stereo not drawn) [Example 24, N-(5,6-Dihydro4H-cyclopenta[b]thiophen-5-yl)-6-methoxymethylnicotinamide, trifluoroacetic acid salt], the EC50 is 125 µM.
Then `Cc1cc(C(=O)NC2Cc3ccsc3C2)c(C)n1Cc1ccncc1` (stereo not drawn) [Example 18, 2,5-Dimethyl-1-pyridin-4-ylmethyl-1H-pyrrole-3-carboxylic acid (5,6-dihydro-4H-cyclopenta[b]thiophen-5-yl)amide, trifluoroacetic acid salt], with 3.3 µM; and `Nc1nccnc1C(=O)NC1Cc2ccsc2C1` (stereo not drawn) [Example 25, 3-Aminopyrazine-2-carboxylic acid (5,6-dihydro-4H-cyclopenta[b]thiophen-5-yl)amide], with 18 µM.
Take `O=C(NC1Cc2cccnc2C1)c1ccc(Cl)cc1` (single isomer, unassigned; enantiomer 1) [Example 10, 4-Chloro-N-(6,7-dihydro-5H-[1]pyrindin-6-yl)benzamide (enantiomer 1), trifluoroacetic acid salt]: the EC50 was determined as 0.8 µM.
Then `Cc1nc(C)c(C(=O)NC2Cc3ccsc3C2)s1` (stereo not drawn) [Example 19, 2,4-Dimethylthiazole-5-carboxylic acid (5,6-dihydro-4H-cyclopenta[b]thiophen-5-yl)amide], with 20 µM; and `O=C(NC1Cc2ccsc2C1)c1cnn(-c2ccccc2)c1C(F)(F)F` (stereo not drawn) [Example 17, 1-Phenyl-5-trifluoromethyl-1H-pyrazole-4-carboxylic acid (5,6-dihydro-4H-cyclopenta[b]thiophen-5-yl)amide], with 0.35 µM.
In the case of `COCc1ccc(C(=O)NC2Cc3cccnc3C2)cn1` (single isomer, unassigned; enantiomer 1) [Example 8, N-(6,7-Dihydro-5H-[1]pyrindin-6-yl)-6-methoxymethyinicotinamide (enantiomer 1)], the EC50 was found to be 30 µM.
Consider `Cc1ccc(C(=O)NC2CCCc3cccnc3C2)c(C)c1` (stereo not drawn) [Example 11, 2,4-Dimethyl-N-(6,7,8,9-tetrahydro-5H-cyclohepta[b]pyridin-8-yl)benzamide], for which the EC50 was determined as 0.064 µM.
Then `O=C(NC1Cc2ccsc2C1)c1ccc(N2CCOCC2)nc1` (stereo not drawn) [Example 30, N-(5,6-Dihydro-4H-cyclopenta[b]thiophen-5-yl)-6-(morpholin-4-yl)nicotinamide, trifluoroacetic acid salt], with 11 µM; and `COc1ccc(C(=O)NC2Cc3ccsc3C2)cn1` (stereo not drawn) [Example 14, N-(5,6-Dihydro-4 H-cyclopenta[b]thiophen-5-yl)-6-methoxynicotinamide], with 2.4 µM.
Then `Cc1cnc(C(=O)NC2Cc3ccsc3C2)c(N)n1` (stereo not drawn) [Example 12, 3-Amino-5-methylpyrazine-2-carboxylic acid (5,6-dihydro4H-cyclopenta[b]thiophen-5-yl)amide], with 11 µM.
Regarding `Cc1nc2ccc(C(=O)NC3Cc4cccnc4C3)cc2[nH]1` (single isomer, unassigned; enantiomer 1) [Example 7, 2-Methyl-3H-benzimidazole-5-carboxylic acid (6,7-dihydro-5H-[1]pyrindin-6-yl)amide (enantiomer 1)], the EC50 worked out at 23 µM.
Then `O=C(NC1Cc2ccsc2C1)c1cccc(N2CCOCC2)c1` (stereo not drawn) [Example 31, N-(5,6-Dihydro-4H-cyclopenta[b]thiophen-5-yl)-3-(morpholin-4-yl)benzamide], with 3.3 µM.
Turning to `Cc1ccc(C(=O)NC2Cc3cccnc3C2)c(C)n1` (single isomer, unassigned; enantiomer 1) [Example 5, N-(6,7-Dihydro-5H-[1]pyrindin-6-yl)-2,6-dimethylnicotinamide (enantiomer 1)], the EC50 was determined as 3.3 µM.
Then `Cc1nc2ccc(C(=O)NC3Cc4ccsc4C3)cc2[nH]1` (stereo not drawn) [Example 15, 2-Methyl-3H-benzimidazole-5-carboxylic acid (5,6-dihydro-4H-cyclopenta[b]thiophen-5-yl)amide, trifluoroacetic acid salt], with 3.1 µM.
Then `Nc1ncccc1C(=O)NC1Cc2ccsc2C1` (stereo not drawn) [Example 21, 2-Amino-N-(5,6-dihydro-4H-cyclopenta[b]thiophen-5-yl)nicotinamide, trifluoroacetic acid salt], with 4.8 µM.
Then `Cc1ccc(C(=O)NC2Cc3ccsc3C2)c(C)c1` (stereo not drawn) [Example 27, N-(5,6-Dihydro-4H-cyclopenta[b]thiophen-5-yl)-2,4-dimethylbenzamide], with less than 0.1 µM.
On to `O=C(NC1Cc2cccnc2C1)c1ccc2c(c1)OC(F)(F)O2` (single isomer, unassigned; enantiomer 1) [Example 9, 2,2-Difluorobenzo[1,3]dioxole-5-carboxylic acid (6,7-dihydro-5H-[1]pyrindin-6-yl)amide (enantiomer 1), trifluoroacetic acid salt], for which the EC50 came out at 0.93 µM.
Then `Cc1ccc(C(=O)NC2Cc3ccsc3C2)c(Cl)n1` (stereo not drawn) [Example 23, 2-Chloro-N-(5,6-dihydro-4H-cyclopenta[b]thiophen-5-yl)-6-methylnicotinamide], with 0.8 µM.
Then `Cc1c(C(=O)NC2Cc3ccsc3C2)cnn1-c1ccccc1` (stereo not drawn) [Example 16, 5-Methyl-1-phenyl-1H-pyrazole-4-carboxylic acid (5,6-dihydro-4H-cyclopenta[b]thiophen-5-yl)amide], with 0.2 µM; and `COc1ccc(C(=O)NC2Cc3cccnc3C2)cn1` (single isomer, unassigned; enantiomer 1) [Example 6, N-(6,7-Dihydro-5H-[1]pyrindin-6-yl)-6-methoxynicotinamide (enantiomer 1)], with 12 µM.
As for `O=C(NC1Cc2ccsc2C1)c1cccc(Cl)c1Cl` (stereo not drawn) [Example 26, 2,3-Dichloro-N-(5,6-dihydro-4H-cyclopenta[b]thiophen-5-yl)benzamide], the figure is 1.5 µM; as for `CS(=O)(=O)Nc1cccc(C(=O)NC2Cc3ccsc3C2)c1` (stereo not drawn) [Example 29, N-(5,6-Dihydro-4H-cyclopenta[b]thiophen-5-yl)-3-methylsulfonylaminobenzamide], 2.3 µM; as for `O=C(NC1Cc2ccsc2C1)c1ccc(F)cc1F` (stereo not drawn) [Example 28, N-(5,6-Dihydro-4H-cyclopenta[b]thiophen-5-yl)-2,4-difluorobenzamide], 0.76 µM.
For the compound `Cc1ccc(C(=O)NC2Cc3ccsc3C2)cn1` (stereo not drawn) [Example 22, N-(5,6-Dihydro-4H-cyclopenta[b]thiophen-5-yl)-6-methylnicotinamide, trifluoroacetic acid salt], the EC50 was determined as 1.6 µM.
As for `Cc1nn(C)cc1C(=O)NC1Cc2ccsc2C1` (stereo not drawn) [Example 20, 1,3-Dimethyl-1H-pyrazole-4-carboxylic acid (5,6-dihydro-4H-cyclopenta[b]thiophen-5-yl)amide], the figure is 9.8 µM.
